In patent publication US6214833A, “Pyrimidinone-1,3-oxathiolane derivatives with antiviral activity” (Zambon Group S.p.A., priority 1997, dated 2001):

Tested on: limphocitic human cell line MT4 infected by HIV-1 strain BRU
Experiment: anti-HIV activity on lymphocytes (MT4 cells): inhibition of viral reverse transcriptase activity in culture supernatant
Assay type: cell-based, HIV-1 strain BRU; human MT4 cells
Settings: Human immunodeficiency virus 1, Lymphocyte, MT4 human lymphocytes infected by HIV-1 BRU, 7-8 days culture at 37° C.
Protocol: (§1) The antiviral activity of the compounds of formula I, object of the present invention, was evaluated on the MT4 human lymphocytes infected by HIV-1 BRU strain and on fresh human macrophages infected by the macrophage-trophic HIV-1 PAR strain.
(§2) Both kinds of experiment were carried out following conventionally used methods for the evaluation of reverse transcriptase inhibitors and are predictive of the in vivo anti-HIV activity.
(§3) The anti-HIV activity of the compounds of formula I was evaluated on the limphocitic human cell line MT4 infected by HIV-1 strain BRU and on fresh human macrophages infected by the macrophage-trophic HIV- 1 PAR strain.
The cells, infected and treated with the compounds of formula I, were cultured at 37° C. for 7-8 days. Every 3-4 days the culture supernatant was withdrawn and substituted with fresh medium containing or not the compounds of formula I. The anti-HIV activity was evaluated at the end of the experiment as 50% inhibition (IC50) of the activity of the viral reverse transcriptase in the supernatant of infected cultures in comparison with the control cultures.
The used methodologies were described in the papers published by Rey M. A. et al. on Biochem. Biophys. Res. Commun. (1984), 121, 126-133 and on Virology (1991), 181, 165-171.
(§4) In the following table the data of anti-HIV activity on both the cell lines for some representative compounds of formula I are reported.
With `CC(C)(C)OC(=O)N(CCCCCC(=O)OC[C@@H]1O[C@H](n2ccc(N)nc2=O)CS1)Cc1ccccc1` (relative stereo) [Compound 4, (±)-4-Amino-1-[2-[6-(N-tert-butoxycarbonyl-N-phenylmethylamino)-hexanoyloxy-methyl]-1,3-oxathiolan-5-yl]-2(1H)-pyrimidinone] the IC50 was 0.001 µM.
`Nc1ccn([C@@H]2CS[C@H](COC(=O)CCCCCNCCCCCNCc3ccccc3)O2)c(=O)n1` (relative stereo) [Compound 48, (±)-4-Amino-1-[2-[6-[5-(phenylmethylamino)pentylamino]-hexanoyloxymethyl]-1,3-oxathiolan-5-yl]-2(1H)-pyrimidinone] showed an IC50 of 0.15 µM.
`Nc1ccn([C@@H]2CS[C@H](COC(=O)CCCCCNCc3ccccc3C(F)(F)F)O2)c(=O)n1` (relative stereo) [Compound 55, (±)-4-Amino-1-[2-[6-[(2-trifluorophenyl)methylamino]-hexanoyloxymethyl]-1,3-oxathiolan-5-yl]-2(1H)-pyrimidinone] gave an IC50 of 0.1 µM.
In the case of `O=C(CCCCCNCCCCCCNCc1ccccc1)Nc1ccn([C@@H]2CS[C@H](CO)O2)c(=O)n1` (relative stereo) [Compound 56, (±)-1-(2-Hydroxymethyl-1,3-oxathiolan-5-yl)-4-[6-[6-phenylmethylamino)hexylamino]-hexanoylamino]-2(1H)-pyrimidinone], the IC50 is reported as 0.13 µM.
For `CC(C)(C)OC(=O)N(CCCCCC(=O)OC[C@@H]1O[C@H](n2ccc(N)nc2=O)CS1)Cc1ccccc1C(F)(F)F` (relative stereo) [Compound 7, (±)-4-Amino-1-[2-[6-[N-tert-butoxycarbonyl-N-(2-trifluoromethyl-phenyl)methyl-amino]-hexanoyloxymethyl-]-1,3-oxathiolan-5-yl]-2(1H)-pyrimidinone], the IC50 was 0.001 to 0.01 µM.
For `CC(C)(C)OC(=O)N(CCCCCC(=O)OC[C@H]1O[C@@H](n2ccc(N)nc2=O)CS1)CCCCCN(Cc1ccccc1)C(=O)OC(C)(C)C` [Compound 2, (2S, 5R)-4-Amino-1-[2-[6-[5-(N'-tert-butoxycarbonyl-N'-phenylmethylamino)-N-tert-butoxycarbonyl-pentylamino]-hexanoyloxymethyl]-1,3-oxathiolan-5-yl]-2(1H)-pyrimidinone], the IC50 was less than 0.1 µM.
Molecule `Nc1ccn([C@@H]2CS[C@H](CO)O2)c(=O)n1` (relative stereo) [BCH-189, 4-amino-1-(2-hydroxymethyl-1,3-oxathiolan-5-yl)-2(1H)-pyrimidinone, reference compound] has an IC50 of 0.7 µM.
Work on `Nc1ccn([C@@H]2CS[C@H](COC(=O)CCCCCNCc3cccc(C(F)(F)F)c3)O2)c(=O)n1` (relative stereo) [Compound 53, (±)-4-Amino-1-[2-[6-[(3trifluorophenyl)methylamino]-hexanoyloxymethyl]-1,3-oxathiolan-5-yl]-2(1H)-pyrimidinone] yielded an IC50 of 0.7 µM.
Molecule `CC(C)(C)OC(=O)N(CCCCCC(=O)OC[C@@H]1O[C@H](n2ccc(N)nc2=O)CS1)Cc1cccc(C(F)(F)F)c1` (relative stereo) [Compound 6, (±)-4-Amino-1-[2-[6-[N-tert-butoxycarbonyl-N-(3trifluoromethylphenyl)methyl-amino]-hexanoyloxymethyl-]1,3-oxathiolan-5-yl]-2(1H)-pyrimidinone] has an IC50 of 0.004 µM.
`CC(C)(C)OC(=O)N(CC(=O)OC[C@@H]1O[C@H](n2ccc(N)nc2=O)CS1)Cc1ccccc1` (relative stereo) [Compound 10, (±)-4-Amino-1-[2-[(N-tert-butoxycarbonyl-N-phenylmethylamino)-acetyloxymethyl]-1,3-oxathiolan-5-yl]-2(1H)-pyrimidinone] gave an IC50 of 0.01 to 0.1 µM.
`CCOC(=O)N(CCCCCC(=O)OC[C@@H]1O[C@H](n2ccc(N)nc2=O)CS1)Cc1ccccc1` (relative stereo) [Compound 9, (±)-4-Amino-1-[2-[6-(N-ethoxycarbonyl-N-phenylmethylamino)-hexanoyloxymethyl]-1,3-oxathiolan-5-yl]-2(1H)-pyrimidinone] gave an IC50 of 0.001 to 0.05 µM.
`Nc1ccn([C@@H]2CS[C@H](COC(=O)CCCCCNCc3ccccc3)O2)c(=O)n1` (relative stereo) [Compound 52, (±)-4-Amino-1-[2-[6-(phenylmethylamino)hexanoyloxymethyl]-1,3-oxathiolan-5-yl]-2(1H)-pyrimidinone] gave an IC50 of 0.1 to 1 µM.
`Nc1ccn([C@@H]2CS[C@H](COC(=O)CCCCNCCCCCCNCc3ccccc3)O2)c(=O)n1` (relative stereo) [Compound 49, (±)-4-Amino-1-[2-[5-[6-(phenylmethylamino)hexylamino]-pentanoyloxymethyl]-1,3-oxathiolan-5-yl]-2(1H)-pyrimidinone] showed an IC50 of 0.9 µM.
In the case of `O=C(CCCCCNCCCCCNCc1ccccc1)Nc1ccn([C@@H]2CS[C@H](CO)O2)c(=O)n1` (relative stereo) [Compound 57, (±)-1-(2-Hydroxymethyl-1,3-oxathiolan-5-yl)-4-[6-[5-(phenylmethylamino)pentylamino]-hexanoylamino]-2(1H)-pyrimidinone], the IC50 is reported as 0.41 µM.
With `Nc1ccn([C@@H]2CS[C@H](COC(=O)CCCCCNCCCCCCNCc3ccccc3C(F)(F)F)O2)c(=O)n1` (relative stereo) [Compound 54, (±)-4-Amino-1-[2-[6-[6-[(2-trifluoromethylphenyl)methylamino]-hexylamino]-hexanoyloxymethyl]-1,3-oxathiolan-5-yl]-2(1H)-pyrimidinone] the IC50 was 0.8 µM.
`CC(C)(C)OC(=O)N(CCCCCCN(Cc1ccccc1C(F)(F)F)C(=O)OC(C)(C)C)CCCCCC(=O)OC[C@@H]1O[C@H](n2ccc(N)nc2=O)CS1` (relative stereo) [Compound 8, (±)-4-Amino-1-[2-[6-[6-[N'-tert-butoxycarbonyl-N'-(2-trifluoromethylphenyl)methylamino]-N-tert-butoxycarbonyl-hexylamino]-hexanoyloxymethyl]-1,3-oxathiolan-5-yl]-2(1H)-pyrimidinone] gave an IC50 of 0.1 µM.
In the case of `CC(C)(C)OC(=O)N(CCCCCC(=O)OC[C@@H]1O[C@H](n2ccc(N)nc2=O)CS1)CCCCCN(Cc1ccccc1)C(=O)OC(C)(C)C` (relative stereo) [Compound 1, (±)-4-Amino-1-[2-[6-[5-(N'-tert-butoxycarbonyl-N'-phenylmethylamino)-N-tert-butoxycarbonyl-pentylamino]-hexanoyloxymethyl]-1,3-oxathiolan-5-yl]-2(1H)-pyrimidinone], the IC50 is reported as 0.001 to 0.005 µM.

Tested on: fresh human macrophages infected by the macrophage-trophic HIV-1 PAR strain
Experiment: anti-HIV activity on macrophages: inhibition of viral reverse transcriptase activity in culture supernatant at peak
Assay type: cell-based, HIV-1 PAR strain; human macrophages
Settings: Human immunodeficiency virus 1, Macrophage; fresh human macrophages infected by HIV-1 PAR; about 1 month culture at 37° C.; at peak of reverse transcriptase expression
Protocol: as §1, §2, §3
The cells, infected and treated with the compounds of formula I, were cultured at 37° C. for about 1 month. Every 3-4 days the culture supernatant was withdrawn and substituted with fresh medium containing or not the compounds of formula I. The viral reverse-transcriptase activity, determined in the culture supernatant every 3-4 days, was followed up to the end of the experiment by determining the maximum peak of the enzyme expression. In the correspondence of such a peak the anti-HIV activity was evaluated as 50% inhibition (IC50) of the enzymatic activity in the supernatant of the infected and treated cultures in comparison with the control ones.
The used methodology was described by Schmidtmayerova H. et al. on Virology (1992), 190, 124-133.
as §4
In the case of `O=C(CCCCCNCCCCCCNCc1ccccc1)Nc1ccn([C@@H]2CS[C@H](CO)O2)c(=O)n1` (relative stereo) [Compound 56, (±)-1-(2-Hydroxymethyl-1,3-oxathiolan-5-yl)-4-[6-[6-phenylmethylamino)hexylamino]-hexanoylamino]-2(1H)-pyrimidinone], the IC50 is reported as 0.1 µM.
Work on `Nc1ccn([C@@H]2CS[C@H](CO)O2)c(=O)n1` (relative stereo) [BCH-189, 4-amino-1-(2-hydroxymethyl-1,3-oxathiolan-5-yl)-2(1H)-pyrimidinone, reference compound] yielded an IC50 of 0.1 µM.
Work on `O=C(CCCCCNCCCCCNCc1ccccc1)Nc1ccn([C@@H]2CS[C@H](CO)O2)c(=O)n1` (relative stereo) [Compound 57, (±)-1-(2-Hydroxymethyl-1,3-oxathiolan-5-yl)-4-[6-[5-(phenylmethylamino)pentylamino]-hexanoylamino]-2(1H)-pyrimidinone] yielded an IC50 of 0.1 µM.

Tested on: HIV
Experiment: not given
Settings: compared with zidovudine, zalcitabine, didanosine and stavudine; WO 91/17159; cited from earlier work
In the case of `Nc1ccn([C@@H]2CS[C@H](CO)O2)c(=O)n1` [lamivudine, (2R-cis)-4-amino-1-(2-hydroxymethyl-1,3-oxathiolan-5-yl)-2(1H)-pyrimidinone], the “antiviral potency and toxicity compared with other RT-inhibitors” value is listed as “more potent and less toxic antiviral than zidovudine, zalcitabine, didanosine and stavudine”.
